Source: the NIST ThermoML archive (doi:10.1016/j.jct.2015.08.013)
± gives the expanded uncertainty stated by the source.

Tests used:
[1] = 100 kPa, Liquid; for viscosity: Capillary tube (Ostwald / Ubbelohde) method; for mass density: Vibrating tube method
[2] = xn = mol fraction of the nth substance listed; settings: 100 kPa, Liquid, x1 = 1; for mass density: Vibrating tube method; for viscosity: Capillary tube (Ostwald / Ubbelohde) method

CC1COC(=O)O1 (stereo not given) [4-methyl-1,3-dioxolan-2-one]
[1]
Settings | viscosity [mPa·s]
298.15 K | 2.52 ± 0.052
303.15 K | 2.27 ± 0.047
308.15 K | 2.08 ± 0.043
313.15 K | 1.91 ± 0.04
318.15 K | 1.75 ± 0.036
323.15 K | 1.62 ± 0.034

CN1CCCC1=O [N-methylpyrrolidone]
[1]
Settings | mass density [kg/m3] | viscosity [mPa·s]
293.15 K | 1032.66 ± 1.6 | –
298.15 K | 1028.17 ± 1.6 | 1.677 ± 0.036
303.15 K | 1023.6 ± 1.6 | 1.536 ± 0.033
308.15 K | 1019.49 ± 1.6 | 1.429 ± 0.03
313.15 K | 1014.74 ± 1.6 | 1.338 ± 0.029
318.15 K | 1010.2 ± 1.6 | 1.248 ± 0.027
323.15 K | 1005.89 ± 1.6 | 1.178 ± 0.025

CN1CCCC1=O [N-methylpyrrolidone] + CC1COC(=O)O1
[2]
Settings | mass density [kg/m3] | viscosity [mPa·s]
293.15 K | 1032.66 ± 1.6 | –
298.15 K | 1028.17 ± 1.6 | 1.677 ± 0.036
303.15 K | 1023.6 ± 1.6 | 1.536 ± 0.033
308.15 K | 1019.49 ± 1.6 | 1.429 ± 0.03
313.15 K | 1014.74 ± 1.6 | 1.338 ± 0.029
318.15 K | 1010.2 ± 1.6 | 1.248 ± 0.027
323.15 K | 1005.89 ± 1.6 | 1.178 ± 0.025

CN1CCCC1=O [N-methylpyrrolidone] + O=C1CCCO1
[2]
Settings | mass density [kg/m3] | viscosity [mPa·s]
293.15 K | 1032.66 ± 1.6 | –
298.15 K | 1028.17 ± 1.6 | 1.677 ± 0.036
303.15 K | 1023.6 ± 1.6 | 1.536 ± 0.033
308.15 K | 1019.49 ± 1.6 | 1.429 ± 0.03
313.15 K | 1014.74 ± 1.6 | 1.338 ± 0.029
318.15 K | 1010.2 ± 1.6 | 1.248 ± 0.027
323.15 K | 1005.89 ± 1.6 | 1.178 ± 0.025
